Laboratory results as given in patent publication US20110251068A1, “PARASITIC PLANT CONTROL AGENT AND PARASITIC PLANT CONTROL METHOD” (OSAKA UNIVERSITY, priority 2008, published 2011).

Tests used:
Type in all cases: in vivo
Orobanche minor [1] = test: Germination rate of Orobanche minor seeds in the presence of enzyme inhibitors (GR24-induced); details: for influence on germination of Orobanche minor: applied concurrently with GR24 0.1 mg/L, observed after four days (FIG. 8); for germination rate: Orobanche minor seeds, with GR24 0.1 mg/L, four days after application (FIG. 8)
Excerpt: (§1) Surfaces of seeds of Orobanche minor and Striga gesnerioides were sterilized by use of an aqueous solution containing 1% SDS and 5% sodium hypochlorite. Thereafter, the seeds were washed five times by use of sterile distilled water. Subsequently, the seeds were subjected to suction filtration and then naturally dried. GF/A glass filter paper of Φ 47 mm was spread on a laboratory dish, a GF/D glass disk of 1 cm was placed on the GF/A glass filter paper, and approximately 50 grains of the seeds were sown on the GF/D glass disk. 1.5 mL of sterile water was placed in the laboratory dish, and conditioning was carried out in a dark place at 23° C. for seven days. The GF/D glass disk was taken out of the laboratory dish on the eighth day after the beginning of conditioning and then placed on new GF/A glass filter paper. 1.5 mL of a germination stimulant GR24 (0.1 mg/L) was applied to the seeds of Orobanche minor, so as to induce its germination. A root extract of cowpea (CP) was applied to the seeds of Striga gesnerioides, so as to induce its germination. Note that concurrently with GR24 or the root extract of cowpea, nojirimycin, deoxynojirimycin, or deoxygalactonojirimycin was applied to the seeds. Note that nojirimycin is a typical β-glucosidase activity inhibitor, deoxynojirimycin is a typical α-glucosidase activity inhibitor, and deoxygalactonojirimycin is a typical galactosidase activity inhibitor. Whether or not germination occurred was observed by microscopic observation four days after application of GR24 or the root extract of cowpea (CP) and the like to the seeds.

Orobanche minor [2] = test: Selective inhibition of germination: parasitic plant Orobanche minor; details: with GR24 0.1 mg/L, four days (FIG. 13)
Excerpt: (§2) It was examined whether or not germination inhibition caused by inhibition of gentianose metabolism was a selective phenomenon with respect to a parasitic plant. Note that nojirimycin was used as a typical gentianose metabolism inhibitor. Note also that Orobanche minor and Striga gesnerioides were used as typical parasitic plants and Trifolium pratense and Arabidopsis thaliana were used as typical non-parasitic plants. The following description specifically discusses how the examination was carried out. Surfaces of seeds of Orobanche minor, Striga gesnerioides, Arabidopsis thaliana, and Trifolium pratense were sterilized by use of an aqueous solution containing 1% SDS and 5% sodium hypochlorite. Thereafter, the seeds were washed five times by use of sterile distilled water. Subsequently, the seeds were subjected to suction filtration and then naturally dried. GF/A glass filter paper of Φ 47 mm was spread on a laboratory dish, a GF/D glass disk of 1 cm was placed on the GF/A glass filter paper, and approximately 50 grains of the seeds were sown on the GF/D glass disk. 1.5 mL of sterile water was placed in the laboratory dish, and conditioning was carried out in a dark place at 23° C. for seven days. The GF/D glass disk was taken out of the laboratory dish on the eighth day after the beginning of conditioning and then placed on new GF/A glass filter paper. […]

Orobanche minor [3] = test: Recovery of germination inhibition effect by addition of glucose; details: Orobanche minor seeds, GR24 0.1 mg/L, nojirimycin with glucose 10 mM, four days (FIG. 9)
Protocol: The following description specifically discusses how the examination was carried out. Surfaces of seeds of Orobanche minor were sterilized by use of an aqueous solution containing 1% SDS and 5% sodium hypochlorite. Thereafter, the seeds were washed five times by use of sterile distilled water. Subsequently, the seeds were subjected to suction filtration and then naturally dried. GF/A glass filter paper of Φ 47 mm was spread on a laboratory dish, a GF/D glass disk of 1 cm was placed on the GF/A glass filter paper, and approximately 50 grains of the seeds were sown on the GF/D glass disk. 1.5 mL of sterile water was placed in the laboratory dish, and conditioning was carried out in a dark place at 23° C. for seven days. The GF/D glass disk was taken out of the laboratory dish on the eighth day after the beginning of conditioning and then placed on new GF/A glass filter paper. 1.5 mL of a germination stimulant GR24 (0.1 mg/L) was applied to the seeds, so as to induce its germination. Note that concurrently with GR24, nojirimycin or a mixture of nojirimycin and glucose (glucose concentration: 10 mM) was added to the seeds. Whether or not germination occurred was observed by microscopic observation four days after application of GR24 and the like to the seeds.

Arabidopsis thaliana = test: Selective inhibition of germination: non-parasitic plant Arabidopsis thaliana; details: only nojirimycin, no germination inducer, four days (FIG. 13)
Excerpt: as §2

Striga gesnerioides [4] = test: Selective inhibition of germination: parasitic plant Striga gesnerioides; details: with root extract of cowpea, four days (FIG. 13)
Excerpt: as §2

Striga gesnerioides [5] = test: Germination rate of Striga gesnerioides seeds in the presence of nojirimycin (induced by root extract of cowpea); details: for germination rate: Striga gesnerioides seeds, rate without nojirimycin taken as 100%, cowpea root extract, four days (FIG. 10)
Excerpt: as §1

Trifolium pratense = test: Selective inhibition of germination: non-parasitic plant Trifolium pratense; details: only nojirimycin, no germination inducer, four days (FIG. 13)
Excerpt: as §2

With OC[C@H]1NC[C@H](O)[C@@H](O)[C@@H]1O [deoxynojirimycin] the “influence on germination of Orobanche minor” value (from here on “influence … of Orobanche minor”) (Orobanche minor [1]) was “no influence on germination”.
With OC[C@H]1NC[C@H](O)[C@@H](O)[C@H]1O [deoxygalactonojirimycin] the “influence … of Orobanche minor” value (Orobanche minor [1]) was “no influence on germination”.
In the case of OC[C@H]1NC(O)[C@H](O)[C@@H](O)[C@@H]1O (some centres unmarked) [nojirimycin], the germination rate (Orobanche minor [1]; concentration of 1 μM) was “approximately 20%”, the germination rate (Orobanche minor [1]; concentration of 10 μM) was “approximately 10%” and the germination rate (Orobanche minor [1]; concentration of not less than 25 μM) was “approximately 0%”. For the same molecule, the “influence … of Orobanche minor” value (Orobanche minor [1]) was “inhibited germination”, the “inhibition of germination of Orobanche minor (parasitic plant)” value (Orobanche minor [2]) was “effectively inhibited germination” and the “germination recovery effect of glucose versus germination inhibition effect of nojirimycin” value (Orobanche minor [3]) was “recovered by glucose”. The “inhibition of germination of Arabidopsis thaliana (non-parasitic plant)” value (Arabidopsis thaliana) was “did not inhibit germination”, the “inhibition of germination of Striga gesnerioides (parasitic plant)” value (Striga gesnerioides [4]) was “effectively inhibited germination” and the germination rate (Striga gesnerioides [5]; 1 μM) was “approximately 24.3%”. The germination rate (Striga gesnerioides [5]; 10 μM) was about 7.5%, the germination rate (Striga gesnerioides [5]; 50 μM) was about 6.2% and the germination rate (Striga gesnerioides [5]; 100 μM) was about 0%. For the same molecule, the germination rate (Striga gesnerioides [5]; 1 mM) was about 0%, the “influence on germination of Striga gesnerioides” value (Striga gesnerioides [5]; applied concurrently with root extract of cowpea, observed after four days (FIG. 10)) was “inhibited germination” and the “inhibition of germination of Trifolium pratense (non-parasitic plant)” value (Trifolium pratense) was “did not inhibit germination”.
